From patent US11261211B2, “19-NOR neuroactive steroids and methods of use thereof” (Sage Therapeutics, Inc., priority 2013, dated 2022)

molecular target: α1β2γ2 GABAA receptor (Homo sapiens (Human), UniProt P14867+P47870); assay: Patch clamp electrophysiology of recombinant α1β2γ2 GABAA receptors in LTK cells; format: cell-based; conditions: 10 μM compound, Qpatch, Ltk cells, GABA EC20 2 μM
Method: Cellular electrophysiology is used to measure the pharmacological properties of our GABAA receptor modulators in heterologous cell systems. Each compound is tested for its ability to affect GABA mediated currents at a submaximal agonist dose (GABA EC20=2 μM). LTK cells are stably transfected with the α1β2γ2 subunits of the GABA receptor and CHO cells are transiently transfected with the α4β3δ subunits via the Lipofecatamine method. Cells were passaged at a confluence of about 50-80% and then seeded onto 35 mm sterile culture dishes containing 2 ml culture complete medium without antibiotics or antimycotics. Confluent clusters of cells are electrically coupled (Pritchett et al., 1988). Because responses in distant cells are not adequately voltage clamped and because of uncertainties about the extent of coupling (Verdoorn et al., 1990), cells were cultivated at a density that enables the recording of single cells (without visible connections to other cells).
Whole cell currents were measured with HEKA EPC-10 amplifiers using PatchMaster software or by using the high throughput QPatch platform (Sophion). Bath solution for all experiments contained (in mM): NaCl 137 mM, KCl 4 mM, CaCl2 1.8 mM, MgCl2 1 mM, HEPES 10 mM, D-Glucose 10 mM, pH (NaOH) 7.4. In some cases 0.005% cremophor was also added. Intracellular (pipette) solution contained: KCl 130 mM, MgCl2 1 mM, Mg-ATP 5 mM, HEPES 10 mM, EGTA 5 mM, pH 7.2. During experiments, cells and solutions were maintained at room temperature (19° C.-30° C.). For manual patch clamp recordings, cell culture dishes were placed on the dish holder of the microscope and continuously perfused (1 ml/min) with bath solution. After formation of a Gigaohm seal between the patch electrodes and the cell (pipette resistance range: 2.5 MΩ-6.0 MΩ; seal resistance range: >1 GΩ) the cell membrane across the pipette tip was ruptured to assure electrical access to the cell interior (whole-cell patch-configuration). For experiments using the QPatch system, cells were transferred as suspension to the QPatch system in the bath solution and automated whole cell recordings were performed.
Cells were voltage clamped at a holding potential of −80 mV. For the analysis of test articles, GABA receptors were stimulated by 2 μM GABA after sequential pre-incubation of increasing concentrations of the test article. Pre-incubation duration was 30 s and the duration of the GABA stimulus was 2 s. Test articles were dissolved in DMSO to form stock solutions (10 mM). Test articles were diluted to 0.01, 0.1, 1, and 10 μM in bath solution. All concentrations of test articles were tested on each cell. The relative percentage potentiation was defined as the peak amplitude in response to GABA EC20 in the presence of the test article divided by the peak amplitude in response to GABA EC20 alone, multiplied by 100.

SMILES | α1β2γ2 GABA Qpatch in Ltk (Efficacy at 10 μm)
C[C@@]1(O)CC[C@H]2[C@H](CC[C@@H]3[C@@H]2CC[C@]2(C)[C@@H](C(=O)Cn4cc5cnccc5n4)CC[C@@H]32)C1 [SA-10] | C (“C” indicates an efficacy value of >500%)
C[C@@]1(O)CC[C@H]2[C@H](CC[C@@H]3[C@@H]2CC[C@]2(C)[C@@H](C(=O)Cn4ncc5ccncc54)CC[C@@H]32)C1 [SA-21] | B (“B” indicates an efficacy value of >100-500%)
C[C@@]1(O)CC[C@H]2[C@H](CC[C@@H]3[C@@H]2CC[C@]2(C)[C@@H](C(=O)Cn4ncc5cccnc54)CC[C@@H]32)C1 [SA-19] | B (“B” indicates an efficacy value of >100-500%)

same assay, conditions: LTK, 10 μM compound, Qpatch, Ltk cells, GABA EC20 2 μM; read-out: α1β2γ2 GABA Qpatch in Ltk (Efficacy at 10 μm)

SMILES | activity at 10 µM [%]
CCOC[C@@]1(O)CC[C@H]2[C@@H](CC[C@@H]3[C@@H]2CC[C@]2(C)[C@@H](C(=O)Cn4nc5ccncc5n4)CC[C@@H]32)C1 [SB-59] | 100 to 500
C[C@@]1(O)CC[C@H]2[C@H](CC[C@@H]3[C@@H]2CC[C@]2(C)[C@@H](C(=O)Cn4ncc5ncncc54)CC[C@@H]32)C1 [SA-33] | 100 to 500
C[C@]12CC[C@H]3[C@@H](CC[C@@H]4C[C@@](O)(CF)CC[C@@H]43)[C@@H]1CC[C@@H]2C(=O)Cn1cc2ccncc2n1 [SA-85] | > 500
Cc1c2ccccc2nn1CC(=O)[C@H]1CC[C@H]2[C@@H]3CC[C@@H]4C[C@](C)(O)CC[C@@H]4[C@H]3CC[C@]12C [SA-46] | > 500
C[C@]12CC[C@H]3[C@@H](CC[C@H]4C[C@@](O)(CF)CC[C@@H]43)[C@@H]1CC[C@@H]2C(=O)Cn1nnc2ccncc21 [SB-26] | 10 to 100
COc1ccc2nn(CC(=O)[C@H]3CC[C@H]4[C@@H]5CC[C@H]6C[C@@](O)(CF)CC[C@@H]6[C@H]5CC[C@]34C)nc2c1 [SG-21] | 10 to 100
C[C@]12CC[C@H]3[C@@H](CC[C@H]4C[C@@](O)(CF)CC[C@@H]43)[C@@H]1CC[C@@H]2C(=O)Cn1ncc2ccncc21 [SB-19] | 100 to 500
Cc1nn(CC(=O)[C@H]2CC[C@H]3[C@@H]4CC[C@@H]5C[C@](C)(O)CC[C@@H]5[C@H]4CC[C@]23C)c2ccccc12 [SA-45] | > 500
CCOC[C@@]1(O)CC[C@H]2[C@@H](CC[C@@H]3[C@@H]2CC[C@]2(C)[C@@H](C(=O)Cn4ncc5ccncc54)CC[C@@H]32)C1 [SB-56] | 10 to 100
COC[C@@]1(O)CC[C@H]2[C@H](CC[C@@H]3[C@@H]2CC[C@]2(C)[C@@H](C(=O)Cn4nnc5ccccc54)CC[C@@H]32)C1 [SA-115] | > 500
C[C@@]1(O)CC[C@H]2[C@H](CC[C@@H]3[C@@H]2CC[C@]2(C)[C@@H](C(=O)Cn4nc(Cl)c5ccccc54)CC[C@@H]32)C1 [SA-55] | 100 to 500
C[C@@]1(O)CC[C@H]2[C@H](CC[C@@H]3[C@@H]2CC[C@]2(C)[C@@H](C(=O)Cn4ncc5ncc(Cl)cc54)CC[C@@H]32)C1 [SA-27] | > 500
C[C@]12CC[C@H]3[C@@H](CC[C@@H]4C[C@@](O)(C(F)F)CC[C@@H]43)[C@@H]1CC[C@@H]2C(=O)Cn1ncc2ncccc21 [SA-94] | 100 to 500
C[C@@]1(O)CC[C@H]2[C@H](CC[C@@H]3[C@@H]2CC[C@]2(C)[C@@H](C(=O)Cn4nnc5c(Cl)cccc54)CC[C@@H]32)C1 [SA-76] | > 500
C[C@@]1(O)CC[C@H]2[C@@H](CC[C@@H]3[C@@H]2CC[C@]2(C)[C@@H](C(=O)Cn4nc5ccc(F)cc5n4)CC[C@@H]32)C1 [SB-11] | 100 to 500
COC[C@@]1(O)CC[C@H]2[C@@H](CC[C@@H]3[C@@H]2CC[C@]2(C)[C@@H](C(=O)Cn4cc5ncccc5n4)CC[C@@H]32)C1 [SB-47] | > 500
C[C@]12CC[C@H]3[C@@H](CC[C@@H]4C[C@@](O)(C(F)F)CC[C@@H]43)[C@@H]1CC[C@@H]2C(=O)Cn1nc2ccncc2n1 [SA-97] | > 500
CC[C@@]1(O)CC[C@H]2[C@H](CC[C@@H]3[C@@H]2CC[C@]2(C)[C@@H](C(=O)Cn4ncc5ncccc54)CC[C@@H]32)C1 [SA-111] | > 500
C[C@]12CC[C@H]3[C@@H](CC[C@@H]4C[C@@](O)(C(F)F)CC[C@@H]43)[C@@H]1CC[C@@H]2C(=O)Cn1cc2ncccc2n1 [SA-93] | > 500
COC[C@@]1(O)CC[C@H]2[C@H](CC[C@@H]3[C@@H]2CC[C@]2(C)[C@@H](C(=O)Cn4nnc5ccncc54)CC[C@@H]32)C1 [SA-124] | 100 to 500

SMILES | activity at 10 µM [%]
C[C@@]1(O)CC[C@H]2[C@@H](CC[C@@H]3[C@@H]2CC[C@]2(C)[C@@H](C(=O)Cn4nc5ccccc5n4)CC[C@@H]32)C1 [SB-2] | > 500
COC[C@@]1(O)CC[C@H]2[C@H](CC[C@@H]3[C@@H]2CC[C@]2(C)[C@@H](C(=O)Cn4nc5ccc(F)cc5n4)CC[C@@H]32)C1 [SA-122] | 100 to 500
CCOC[C@@]1(O)CC[C@H]2[C@@H](CC[C@@H]3[C@@H]2CC[C@]2(C)[C@@H](C(=O)Cn4nnc5ccccc54)CC[C@@H]32)C1 [SB-52] | 100 to 500
C[C@@]1(O)CC[C@H]2[C@H](CC[C@@H]3[C@@H]2CC[C@]2(C)[C@@H](C(=O)Cn4nnc5ncc(Cl)cc54)CC[C@@H]32)C1 [SA-56] | 100 to 500
C[C@@]1(O)CC[C@H]2[C@@H](CC[C@@H]3[C@@H]2CC[C@]2(C)[C@@H](C(=O)Cn4nnc5cnccc54)CC[C@@H]32)C1 [SB-7] | 100 to 500
C[C@]12CC[C@H]3[C@@H](CC[C@@H]4C[C@@](O)(C(F)F)CC[C@@H]43)[C@@H]1CC[C@@H]2C(=O)Cn1nc2ccccc2n1 [SA-92] | 100 to 500
C[C@@]1(O)CC[C@H]2[C@H](CC[C@@H]3[C@@H]2CC[C@]2(C)[C@@H](C(=O)Cn4nc5ccc(F)cc5n4)CC[C@@H]32)C1 [SA-62] | 100 to 500
C[C@@]1(O)CC[C@H]2[C@H](CC[C@@H]3[C@@H]2CC[C@]2(C)[C@@H](C(=O)Cn4nnc5cccc(Cl)c54)CC[C@@H]32)C1 [SA-77] | > 500
CC[C@@]1(O)CC[C@H]2[C@@H](CC[C@@H]3[C@@H]2CC[C@]2(C)[C@@H](C(=O)Cn4nc5ccccc5n4)CC[C@@H]32)C1 [SB-36] | 100 to 500
C[C@@]1(O)CC[C@H]2[C@H](CC[C@@H]3[C@@H]2CC[C@]2(C)[C@@H](C(=O)Cn4ncc5nccnc54)CC[C@@H]32)C1 [SA-29] | 100 to 500
C[C@]12CC[C@H]3[C@@H](CC[C@H]4C[C@@](O)(CF)CC[C@@H]43)[C@@H]1CC[C@@H]2C(=O)Cn1nc2ccc(F)cc2n1 [SG-24] | 100 to 500
COC[C@@]1(O)CC[C@H]2[C@@H](CC[C@@H]3[C@@H]2CC[C@]2(C)[C@@H](C(=O)Cn4nc5ccc(F)cc5n4)CC[C@@H]32)C1 [SB-41] | 10 to 100
C[C@@]1(O)CC[C@H]2[C@H](CC[C@@H]3[C@@H]2CC[C@]2(C)[C@@H](C(=O)Cn4nc5ccccc5c4O)CC[C@@H]32)C1 [SA-54] | > 500
C[C@@]1(O)CC[C@H]2[C@H](CC[C@@H]3[C@@H]2CC[C@]2(C)[C@@H](C(=O)Cn4nnc5cccc(F)c54)CC[C@@H]32)C1 [SA-65] | > 500
COc1cccc2nn(CC(=O)[C@H]3CC[C@H]4[C@@H]5CC[C@@H]6C[C@](C)(O)CC[C@@H]6[C@H]5CC[C@]34C)nc12 [SA-75] | 100 to 500
C[C@@]1(O)CC[C@H]2[C@H](CC[C@@H]3[C@@H]2CC[C@]2(C)[C@@H](C(=O)Cn4nnc5ccc(Cl)cc54)CC[C@@H]32)C1 [SA-39] | 100 to 500
C[C@@]1(O)CC[C@H]2[C@H](CC[C@@H]3[C@@H]2CC[C@]2(C)[C@@H](C(=O)Cn4nnc5ccccc54)CC[C@@H]32)C1 [SA-1] | > 500
CC[C@@]1(O)CC[C@H]2[C@@H](CC[C@@H]3[C@@H]2CC[C@]2(C)[C@@H](C(=O)Cn4cc5ncccc5n4)CC[C@@H]32)C1 [SB-29] | 100 to 500
COC[C@@]1(O)CC[C@H]2[C@H](CC[C@@H]3[C@@H]2CC[C@]2(C)[C@@H](C(=O)Cn4cc5ccncc5n4)CC[C@@H]32)C1 [SA-118] | > 500
COC[C@@]1(O)CC[C@H]2[C@H](CC[C@@H]3[C@@H]2CC[C@]2(C)[C@@H](C(=O)Cn4nnc5cnccc54)CC[C@@H]32)C1 [SA-123] | 100 to 500

same assay, conditions: LTK; potentiation of GABA EC20 (2 μM) current; read-out: GABAa alpha1 (α1β2γ2) Emax (%)

SMILES | Emax [%]
C[C@@]1(O)CC[C@H]2[C@H](CC[C@@H]3[C@@H]2CC[C@]2(C)[C@@H](C(=O)Cn4ncc5cccnc54)CC[C@@H]32)C1 [SA-19] | 500 to 1000
C[C@@]1(O)CC[C@H]2[C@H](CC[C@@H]3[C@@H]2CC[C@]2(C)[C@@H](C(=O)Cn4nnc5ccccc54)CC[C@@H]32)C1 [SA-1] | 500 to 1000

same assay, conditions: potentiation of GABA EC20 (2 μM) current; read-out: GABAa alpha1 (α1β2γ2)EC50

SMILES | EC50 [nM]
C[C@@]1(O)CC[C@H]2[C@H](CC[C@@H]3[C@@H]2CC[C@]2(C)[C@@H](C(=O)Cn4ncc5cccnc54)CC[C@@H]32)C1 [SA-19] | > 2000
C[C@@]1(O)CC[C@H]2[C@H](CC[C@@H]3[C@@H]2CC[C@]2(C)[C@@H](C(=O)Cn4nnc5ccccc54)CC[C@@H]32)C1 [SA-1] | 500 to 1000
